Consider 10 compounds from patent US7816352B2, “Apoptosis inhibitors” (The Regents of The University of California, priority 2005, dated 2010).

One test concerns thymocytes. The test is described as follows: Cytoprotection of mouse thymocytes from dexamethasone-induced apoptosis (PI/DiOC6 flow cytometry). Type of test: cell-based, C57Bl/6 mice. To be noted: Thymocyte. On the procedure: Thymocytes were harvested from young C57Bl/6 mice and cultured at 37° C. in 5% CO2 in RPMI 1640 containing 10% FBS, 1% Penicillin/Streptomycin (Gibco BRL, Rockville, Md.). Thymocytes were plated at a density of 10^7 cells/mL and pre-incubated with 5-10 μM of test compounds, 1, 2, 4, and 11 (from 10 mM
[drawing 8] stock in DMSO) for 30 minutes before induction of apoptosis. Apoptosis was induced with 5 μM dexamethasone or by exposure to 6 Gy gamma radiation. After 6 hours, cell apoptosis was assayed by propidium iodide (PI) and 3,3′ dihexyloxacarbocyanine iodide (DiOC6) staining. The cells were removed from the plate and incubated for 30 minutes in medium with 40 nM DiOC6 and 5 μg/mL PI and then analyzed by flow cytometry in a FACS caliber (Beckton-Dickinson, San Jose, Calif.). Viable cells had high DiOC6 (FL-1) and low PI (FL-3), whereas apoptotic cells had low DiOC6 (FL-1) and […]. To evaluate the IC50s the thymocytes were pre-exposed to graded concentrations of selected compounds for 30 min and then apoptosis was induced with 5 μM dexamethasone. After 6 hours the cells were harvested and stained as above. The results are illustrated in FIGS. 1 and 2 IC50 Determination
The concentration (IC50) of each compound that inhibited dexamethasone-induced cell death by 50% was determined by nonlinear regression fitting of the data to a one-site model. Pseudo Hill slopes were determined by nonlinear regression fit of the data to a sigmoidal dose-response equation (variable slope): % viability=minimum %/viability+(maximum−minimum % viability)/[1+10(log IC50−X)^n], where X is the logarithm of inhibitor concentration, and n is the pseudo Hill slope and the maximum and minimum % viability were experimentally determined after dexamethasone exposure and drug treatment. IC50 values and 95% confidence intervals (CI) were derived from the sigmoid fits to the percent control transformed data shown using GraphPad Prism version 4.0b for Macintosh (GraphPad Software, San Diego, Calif.).
(In flow cytometry, cells or beads pass a laser one at a time.)

The next test relates to cells. As to conditions: cells pre-incubated with compound, then exposed to γ-radiation; cited from earlier work.
For test [1] the following is noted: mice; cited from earlier work.
Setting [2] is: read-out: EC50, cytoprotective activity following in vitro dexamethasone treatment of mouse thymocytes.
[3] abbreviates: 5 μM dexamethasone, 30 min pre-incubation, 6 hours, 95% CI in parentheses, read-out: EC50, in vitro cytoprotection activity.

As usually defined, the EC50 is the concentration at which the effect is half-maximal.

Like-named read-outs stand apart in the source and are kept apart here.

As for `Br.Cc1ccc(C(=O)Cn2c3c(sc2=N)CCCC3)cc1` [Compound 1, 2-(2-imino-4,5,6,7-tetrahydro-benzothiazol-3-yl)-1-p-tolyl-ethanone hydrobromide], the concentration giving a half-maximal response (EC50) with thymocytes (setting [2]) was 4.4 µM. Also, the “apoptosis after γ-radiation” value in the test with cells is “decreased in apoptosis”. The “mortality after γ-radiation” value in test [1] was “reduced mortality”.
As for `CON=C(C[n+]1cccc2ccccc21)c1ccc(C)cc1` [Compound 4, 1-(2-Methoxyimino-2-p-tolyl-ethyl)-quinolinium bromide], the EC50 in the test with thymocytes (setting [3]) and in the test with thymocytes (setting [2]) was 0.35 µM each time.
As to `Cc1ccc(C(=O)C[n+]2cccc3ccccc32)cc1` [Compound 5, 1-(2-Oxo-2-p-tolyl-ethyl)-quinolinium bromide], in the test with thymocytes (setting [3]), the EC50 was above 10 µM.
As to `CON=C(Cn1c(=O)ccc2ccccc21)c1ccc(C)cc1` [Compound 6, 1-(2-Methoxyimino-2-p-tolyl-ethyl)-1H-quinolin-2-one], the EC50 with thymocytes (setting [3]) was above 10 µM.
Consider `Cc1ccc(C(=O)Cn2c(=O)ccc3ccccc32)cc1` [Compound 7, 1-(2-Oxo-2-p-tolyl-ethyl)-1H-quinolin-2-one], for which the EC50 in the test with thymocytes (setting [3]) was above 10 µM.
Same read-out and setting: the result for `CON=C(C[n+]1ccccc1)c1ccc(C)cc1` [Compound 8, 1-(2-Methoxyimino-2-p-tolyl-ethyl)-pyridinium bromide] reads 5.1 µM; that for `Cc1ccc(C(=O)C[n+]2ccccc2)cc1` [Compound 9, 1-(2-Oxo-2-p-tolyl-ethyl)-pyridinium bromide], above 10 µM.
In the case of `CON=C(C[n+]1cccc2ccccc21)c1ccc(N2CCCC2)cc1` [Compound 11, 1-[2-Methoxyimino-2-(4-pyrrolidin-1-yl-phenyl)-ethyl]-quinolinium bromide], the half-maximal effective concentration (EC50) in the test with thymocytes (setting [3]) is 0.013 µM.
For the compound `CON=C(Cn1c(=O)ccc2ccccc21)c1ccc(N2CCCC2)cc1` [Compound 12, 1-[2-Methoxyimino-2-(4-pyrrolidin-1-yl-phenyl)-ethyl]-1H-quinolin-2-one], the EC50 with thymocytes (setting [3]) is above 10 µM.
For `CON=C(C[n+]1ccccc1)c1ccc(N2CCCC2)cc1` [Compound 13, 1-[2-Methoxyimino-2-(4-pyrrolidin-1-yl-phenyl)-ethyl]-pyridinium bromide], in the test with thymocytes (setting [3]), the concentration for a half-maximal effect (EC50) was 0.28 µM.
